Measured values: the supplement of paper PMC10307832

Experiments:
Assay in all cases: relative viability (nuclei count vs DMSO), 5 days (fraction); higher = more cells survive
ABC-1 = test system: ABC-1
Method in brief: (§1)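 Relative viability divides the nuclei count in treated wells by that in vehicle wells. Lung cancer cell lines were seeded in 1536-well plates, dosed by pin tool the next day, and fixed and stained after 5 days in one step with final 0.05% Triton X-100, 1% formaldehyde and 1 ug/ml Hoechst. Dosing was a single drug or a fixed anchor-drug dose plus five library-drug doses (not always all listed) in √10 steps, and values are medians of duplicate plates imaged at 4×.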

CAL-12T = test system: CAL-12T
Method in brief: as §1

COR-L 105 = test system: COR-L 105
Method in brief: as §1

ChaGo-K-1 = test system: ChaGo-K-1
Method in brief: as §1

EMC-BAC-2 = test system: EMC-BAC-2
Method in brief: as §1

EPLC-272H = test system: EPLC-272H
Method in brief: as §1

HCC-15 = test system: HCC-15
Method in brief: as §1

HCC-78 = test system: HCC-78
Method in brief: as §1

HOP-62 = test system: HOP-62
Method in brief: as §1

LXF-289 = test system: LXF-289
Method in brief: as §1

NCI-H1666 = test system: NCI-H1666
Method in brief: as §1

NCI-H1755 = test system: NCI-H1755
Method in brief: as §1

NCI-H1915 = test system: NCI-H1915
Method in brief: as §1

NCI-H1975 = test system: NCI-H1975
Method in brief: as §1

NCI-H1993 = test system: NCI-H1993
Method in brief: as §1

NCI-H2023 = test system: NCI-H2023
Method in brief: as §1

NCI-H2085 = test system: NCI-H2085
Method in brief: as §1

NCI-H2126 = test system: NCI-H2126
Method in brief: as §1

NCI-H3122 = test system: NCI-H3122
Method in brief: as §1

NCI-H322M = test system: NCI-H322M
Method in brief: as §1

NCI-H358 = test system: NCI-H358
Method in brief: as §1

NCI-H441 = test system: NCI-H441
Method in brief: as §1

NCI-H522 = test system: NCI-H522
Method in brief: as §1

UMC-11 = test system: UMC-11
Method in brief: as §1

Work on `C[C@@H]1CN(CC(=O)Nc2ccc3c(c2)Cc2cccc(-c4cc(=O)cc(N5CCOCC5)o4)c2S3)C[C@H](C)O1` + O=C(c1cc(Cc2n[nH]c(=O)c3ccccc23)ccc1F)N1CCN(C(=O)C2CC2)CC1 [Olaparib] (partner 8 µM) yielded a relative viability (ABC-1; first compound 0.04 µM) of 0.729, a relative viability (ABC-1; first compound 0.1265 µM) of 1.22 and a relative viability (ABC-1; first compound 0.4 µM) of 0.804. For the same molecule, the relative viability (ABC-1; first compound 4 µM) was 1.08, the relative viability (CAL-12T; first compound 0.04 µM) was 0.81 and the relative viability (CAL-12T; first compound 0.1265 µM) was 0.739. The relative viability (CAL-12T; first compound 0.4 µM) was 0.656, the relative viability (CAL-12T; first compound 4 µM) was 0.168 and the relative viability (COR-L 105; first compound 0.04 µM) was 0.772. The relative viability (COR-L 105; first compound 0.1265 µM) was 0.786, the relative viability (COR-L 105; first compound 0.4 µM) was 0.822 and the relative viability (COR-L 105; first compound 4 µM) was 0.647. The relative viability (ChaGo-K-1; first compound 0.04 µM) was 0.461, the relative viability (ChaGo-K-1; first compound 0.1265 µM) was 0.428 and the relative viability (ChaGo-K-1; first compound 0.4 µM) was 0.404. The relative viability (ChaGo-K-1; first compound 4 µM) was 0.389, the relative viability (EMC-BAC-2; first compound 0.04 µM) was 0.512 and the relative viability (EMC-BAC-2; first compound 0.1265 µM) was 0.579. The relative viability (EMC-BAC-2; first compound 0.4 µM) was 0.513, the relative viability (EMC-BAC-2; first compound 4 µM) was 0.263 and the relative viability (EPLC-272H; first compound 0.04 µM) was 0.956. It also gave a relative viability (EPLC-272H; first compound 0.1265 µM) of 0.81, a relative viability (EPLC-272H; first compound 0.4 µM) of 0.647 and a relative viability (EPLC-272H; first compound 4 µM) of 0.317. It also gave a relative viability (HCC-15; first compound 0.04 µM) of 0.722, a relative viability (HCC-15; first compound 0.1265 µM) of 0.658 and a relative viability (HCC-15; first compound 0.4 µM) of 0.586. For the same molecule, the relative viability (HCC-15; first compound 4 µM) was 0.286, the relative viability (HCC-78; first compound 0.04 µM) was 0.735 and the relative viability (HCC-78; first compound 0.1265 µM) was 0.807. It also gave a relative viability (HCC-78; first compound 0.4 µM) of 0.925, a relative viability (HCC-78; first compound 4 µM) of 0.595 and a relative viability (HOP-62; first compound 0.04 µM) of 0.283. It also gave a relative viability (HOP-62; first compound 0.1265 µM) of 0.442, a relative viability (HOP-62; first compound 0.4 µM) of 0.452 and a relative viability (HOP-62; first compound 4 µM) of 0.0812. The relative viability (LXF-289; first compound 0.04 µM) was 0.998, the relative viability (LXF-289; first compound 0.1265 µM) was 1.1 and the relative viability (LXF-289; first compound 0.4 µM) was 1.21. The relative viability (LXF-289; first compound 4 µM) was 1.05, the relative viability (NCI-H1666; first compound 0.04 µM) was 0.713 and the relative viability (NCI-H1666; first compound 0.1265 µM) was 0.767. It also gave a relative viability (NCI-H1666; first compound 0.4 µM) of 0.659, a relative viability (NCI-H1666; first compound 4 µM) of 0.468 and a relative viability (NCI-H1755; first compound 0.04 µM) of 0.845. It also gave a relative viability (NCI-H1755; first compound 0.1265 µM) of 0.918, a relative viability (NCI-H1755; first compound 0.4 µM) of 0.833 and a relative viability (NCI-H1755; first compound 4 µM) of 0.958. It also gave a relative viability (NCI-H1915; first compound 0.04 µM) of 0.25, a relative viability (NCI-H1915; first compound 0.1265 µM) of 0.248 and a relative viability (NCI-H1915; first compound 0.4 µM) of 0.265. The relative viability (NCI-H1915; first compound 4 µM) was 0.182, the relative viability (NCI-H1975; first compound 0.04 µM) was 0.78 and the relative viability (NCI-H1975; first compound 0.1265 µM) was 0.748. For the same molecule, the relative viability (NCI-H1975; first compound 0.4 µM) was 0.713, the relative viability (NCI-H1975; first compound 4 µM) was 0.274 and the relative viability (NCI-H1993; first compound 0.04 µM) was 1.06. It also gave a relative viability (NCI-H1993; first compound 0.1265 µM) of 0.963, a relative viability (NCI-H1993; first compound 0.4 µM) of 0.942 and a relative viability (NCI-H1993; first compound 4 µM) of 0.81. It also gave a relative viability (NCI-H2023; first compound 0.04 µM) of 0.441, a relative viability (NCI-H2023; first compound 0.1265 µM) of 0.371 and a relative viability (NCI-H2023; first compound 0.4 µM) of 0.329. It also gave a relative viability (NCI-H2023; first compound 4 µM) of 0.148, a relative viability (NCI-H2085; first compound 0.04 µM) of 0.755 and a relative viability (NCI-H2085; first compound 0.1265 µM) of 0.786. For the same molecule, the relative viability (NCI-H2085; first compound 0.4 µM) was 0.781, the relative viability (NCI-H2085; first compound 4 µM) was 0.345 and the relative viability (NCI-H2126; first compound 0.04 µM) was 0.928. The relative viability (NCI-H2126; first compound 0.1265 µM) was 0.873, the relative viability (NCI-H2126; first compound 0.4 µM) was 0.95 and the relative viability (NCI-H2126; first compound 4 µM) was 0.928. The relative viability (NCI-H3122; first compound 0.04 µM) was 0.607, the relative viability (NCI-H3122; first compound 0.1265 µM) was 0.591 and the relative viability (NCI-H3122; first compound 0.4 µM) was 0.645. For the same molecule, the relative viability (NCI-H3122; first compound 4 µM) was 0.518, the relative viability (NCI-H322M; first compound 0.04 µM) was 0.632 and the relative viability (NCI-H322M; first compound 0.1265 µM) was 0.794. For the same molecule, the relative viability (NCI-H322M; first compound 0.4 µM) was 0.81, the relative viability (NCI-H322M; first compound 4 µM) was 0.643 and the relative viability (NCI-H358; first compound 0.04 µM) was 0.654. The relative viability (NCI-H358; first compound 0.1265 µM) was 0.66, the relative viability (NCI-H358; first compound 0.4 µM) was 0.625 and the relative viability (NCI-H358; first compound 4 µM) was 0.178. It also gave a relative viability (NCI-H441; first compound 0.04 µM) of 0.636, a relative viability (NCI-H441; first compound 0.1265 µM) of 0.551 and a relative viability (NCI-H441; first compound 0.4 µM) of 0.507. The relative viability (NCI-H441; first compound 4 µM) was 0.141, the relative viability (NCI-H522; first compound 0.04 µM) was 0.612 and the relative viability (NCI-H522; first compound 0.1265 µM) was 0.667. For the same molecule, the relative viability (NCI-H522; first compound 0.4 µM) was 0.576, the relative viability (NCI-H522; first compound 4 µM) was 0.614 and the relative viability (UMC-11; first compound 0.04 µM) was 0.32. It also gave a relative viability (UMC-11; first compound 0.1265 µM) of 0.351, a relative viability (UMC-11; first compound 0.4 µM) of 0.86 and a relative viability (UMC-11; first compound 4 µM) of 0.272.
